The text below walks through data of ChEMBL document CHEMBL3243936, “Facile syntheses of potent dopaminergic argonists and their effect on neurotransmitter release” (J Med Chem, 1978).

Molecules are shown by their SMILES. The source made the active and inactive calls. No cut-off for these calls is given here.

Experiment [1] addresses Sodium-dependent dopamine transporter (Rattus norvegicus) (UniProt P23977). Kind of experiment: Agonist activity at Wistar rat striatum dopamine transporter assessed as tritium efflux by measuring [3H]dopamine release at 2 uM after 20 mins by liquid scintillation counting analysis relative to total tissue content.
The target of experiment [2] is Sodium-dependent serotonin transporter (Rattus norvegicus) (UniProt P31652). In words: Agonist activity at Wistar rat brain serotonin transporter assessed as tritium efflux by measuring [3H]serotonin release at 2 uM after 20 to 30 mins by liquid scintillation counting analysis relative to control.
Experiment [3] is filed under the species Rattus norvegicus. In words: Agonist activity at Wistar rat brain GABA transporter assessed as tritium efflux by measuring [3H]GABA release at 2 uM after 20 to 30 mins by liquid scintillation counting analysis relative to control.
In experiment [4] the target is T1, Vesicular acetylcholine transporter (Rattus norvegicus) (UniProt Q62666).
T1 sequence (whole entry): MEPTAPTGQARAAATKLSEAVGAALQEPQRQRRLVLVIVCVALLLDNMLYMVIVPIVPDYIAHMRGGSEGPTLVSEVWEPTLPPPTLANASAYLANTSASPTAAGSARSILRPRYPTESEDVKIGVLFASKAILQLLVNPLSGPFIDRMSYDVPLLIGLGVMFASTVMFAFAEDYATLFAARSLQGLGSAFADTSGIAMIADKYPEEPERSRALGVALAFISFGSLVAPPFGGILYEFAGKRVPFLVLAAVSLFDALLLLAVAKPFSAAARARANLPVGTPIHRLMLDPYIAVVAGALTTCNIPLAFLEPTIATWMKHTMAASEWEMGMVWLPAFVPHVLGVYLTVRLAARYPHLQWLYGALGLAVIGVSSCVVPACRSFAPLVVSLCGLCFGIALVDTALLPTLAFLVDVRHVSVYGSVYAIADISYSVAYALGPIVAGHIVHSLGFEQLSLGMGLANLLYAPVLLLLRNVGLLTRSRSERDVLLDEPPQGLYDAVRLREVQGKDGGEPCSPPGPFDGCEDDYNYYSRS
In words: Agonist activity at Wistar rat brain cholinergic transporter assessed as tritium efflux by measuring [3H]choline release at 2 uM after 20 to 30 mins by liquid scintillation counting analysis relative to control.

The target in experiment [5] is Sodium-dependent dopamine transporter (Rattus norvegicus) (UniProt P23977). In words: Agonist activity at Wistar rat striatum dopamine transporter assessed as tritium efflux by measuring [3H]dopamine release at 1 uM after 20 to 30 mins by liquid scintillation counting analysis in presence of nomifensine.
The target is the same in experiment [6]. Kind of experiment: Agonist activity at Wistar rat cortex dopamine transporter assessed as tritium efflux by measuring [3H]noradrenaline release at 1 uM after 20 to 30 mins by liquid scintillation counting analysis in presence of nomifensine. In kind it is tissue-based.

Chain of Sodium-dependent dopamine transporter (Rattus norvegicus) (P23977 whole entry): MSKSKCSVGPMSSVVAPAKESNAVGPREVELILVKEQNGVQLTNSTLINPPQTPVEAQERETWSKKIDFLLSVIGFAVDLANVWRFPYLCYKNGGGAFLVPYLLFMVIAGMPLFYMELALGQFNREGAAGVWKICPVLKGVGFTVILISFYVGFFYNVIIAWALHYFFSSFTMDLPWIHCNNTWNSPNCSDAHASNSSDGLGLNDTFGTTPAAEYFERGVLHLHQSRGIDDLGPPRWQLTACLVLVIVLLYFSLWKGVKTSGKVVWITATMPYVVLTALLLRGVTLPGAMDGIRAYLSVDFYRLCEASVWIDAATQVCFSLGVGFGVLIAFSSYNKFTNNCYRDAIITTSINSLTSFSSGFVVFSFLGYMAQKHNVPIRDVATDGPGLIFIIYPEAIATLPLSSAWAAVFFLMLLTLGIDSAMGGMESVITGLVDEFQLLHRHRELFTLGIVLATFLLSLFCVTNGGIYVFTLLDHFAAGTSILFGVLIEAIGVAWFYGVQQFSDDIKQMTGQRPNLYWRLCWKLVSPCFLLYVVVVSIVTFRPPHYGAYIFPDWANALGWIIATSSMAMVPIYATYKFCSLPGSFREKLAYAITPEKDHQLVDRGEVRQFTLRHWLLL
Chain of Sodium-dependent serotonin transporter (Rattus norvegicus) (P31652 whole entry): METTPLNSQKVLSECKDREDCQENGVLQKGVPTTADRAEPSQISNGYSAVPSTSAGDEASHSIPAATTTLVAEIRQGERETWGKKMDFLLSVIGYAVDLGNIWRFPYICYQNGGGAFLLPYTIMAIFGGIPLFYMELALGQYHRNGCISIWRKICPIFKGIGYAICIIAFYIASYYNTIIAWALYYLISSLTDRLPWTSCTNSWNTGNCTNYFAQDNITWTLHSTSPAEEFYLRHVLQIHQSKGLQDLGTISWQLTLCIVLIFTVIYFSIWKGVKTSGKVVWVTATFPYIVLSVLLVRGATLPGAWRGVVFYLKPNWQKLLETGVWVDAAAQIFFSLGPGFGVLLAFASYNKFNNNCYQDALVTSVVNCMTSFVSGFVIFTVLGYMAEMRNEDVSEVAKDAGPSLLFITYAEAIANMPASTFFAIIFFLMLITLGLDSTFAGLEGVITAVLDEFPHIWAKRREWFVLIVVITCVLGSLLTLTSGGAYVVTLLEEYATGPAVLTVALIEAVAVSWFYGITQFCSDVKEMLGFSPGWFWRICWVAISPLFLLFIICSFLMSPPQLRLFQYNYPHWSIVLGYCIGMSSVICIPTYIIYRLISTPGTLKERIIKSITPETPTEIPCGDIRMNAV

For `NC1CCc2ccccc2C1` (stereo unspecified), the Activity in experiment [1] is -0.7%.

Regarding `NC1CCc2cc(O)c(O)cc2C1` (stereo unspecified), in experiment [1], the Activity was found to be 25.1%. The outcome in experiment [2], in experiment [3], in experiment [4], in experiment [5] and in experiment [6] was inactive.

`NC1CCc2c(ccc(O)c2O)C1` (stereo unspecified): in experiment [1], the Activity was 6.5%. In addition, the result in experiment [2], in experiment [3] and in experiment [4] was inactive.
